Results reported in patent EP2719696A1, “NOVEL KINASE INHIBITORS” (Asinex Limited, priority 2011, dated 2012).

Assays:
PDGFR-α = PDGFR-α (Homo sapiens, UniProt P16234); assay: Kinase inhibition assay (ELISA); assay type: biochemical; settings: 1 µM ATP
Experimental: (§1) To determine the interaction of our compounds with tyrosine kinases: PDGFR-α, cKIT, PDGFR-β, VEGFR-2 we used enzyme-linked immunosorbent assay (ELISA).
(§2) Determination plates preparation: The plates are processed by neutravidine for 2 h at 30°C. After washing thrice with TBS/0.1% Tween-20 and blocking with 1% BSA/TBS for 1 h at room temperature (RT) 96-well microtiter plates were washed thrice with TBS/0.1% Tween-20 again.
(§3) Reaction: After addition test compounds (in DMSO, DMSO final concentration - 5%) to reaction buffer (20 mM HEPES, pH 7.5, 15 mM MgCl2, 3 mM MnCl2, 2 mM DTT, 0.2 mM Na3VO4, 0.005% Triton X-100; PDGFR-α,: 0.05 µg/ml, 0.5 µg/ml Poly(G,T)-biotin; PDGFR-β: 0.05 µg/ml, 1 µg/ml Poly(G,T)-biotin; c-KIT: 0.03 µg/ml, 0.15 µg/ml Poly(G,T)-biotin; VEGFR-2: 0.07 µg/ml, 0.05 µg/ml Poly(G,T)-biotin) and preincubation of reaction for 10 min at RT and intensive agitation, ATP solution (PDGFR-α, - 1 µM, PDGFR-β - 0.5 µM, c-KIT - 60 µM, VEGFR-2: - 1.5 µM ATP in reaction buffer per well) was added to initiate reaction. Following incubation of mixture for 1 h at 30°C and intensive agitation the reaction was stopped by stop solution (20 mM HEPES, pH 7.5, 50 mM EDTA).
(§4) Kinase activity determination: The reaction mixture was transferred to determination plate. After mix incubation for 1 h at RT and intensive agitation the plates were washed thrice with TBS/0.1% Tween-20. Following mouse monoclonal 0.05 µg/ml Anti-p-Tyr (PY20) HRP antibodies (Santa Cruz Biotechnology) in PBS/BSA were added for 1 h at RT and intensive agitation. After washing, antibody binding was detected by tetramethylbenzidine (TMB) color development (Sigma). Measurement of A450 nm was carried out after addition of H2SO4

VEGFR-2 = VEGFR-2 (Homo sapiens, UniProt P35968); assay: Kinase inhibition assay (ELISA); assay type: biochemical; settings: 1.5 µM ATP
Experimental: as §1, §2, §3, §4

cKIT = cKIT (Homo sapiens, UniProt P10721); assay: Kinase inhibition assay (ELISA); assay type: biochemical; settings: 60 µM ATP
Experimental: as §1, §2, §3, §4

A172 = assay: MTT proliferation / cytotoxicity assay; assay type: cell-based, human; settings: glioblastoma cell line
Experimental: (§5) Cell culture. The human cancer cell lines A172, A375, A2780 and U251 were purchased from the American Type Culture Collection. All cells were routinely maintained in DMEM containing 10% fetal bovine serum (Omega Scientific), at 37°C in 5% C02.
(§6) Proliferation assay Inhibition of cell A172, A375, A2780 and U251 cell proliferation was assessed by a MTT assay (MTT = Thiazolyl Blue Tetrazolium Bromide) . Cells were inoculated into 96-well microtiter plates containing 0.5% fetal calf serum and incubated at 37°C, 5% CO2, 95% air, and 100% relative humidity for 24 h prior to addition of testing compounds. Following compounds addition, the plates were incubated for an additional 72 h before processing to measure the cell population. Each compound was tested at eight different concentrations in triplicate, as was a control sample. Growth inhibition of 50% (IC50) is calculated by analysis of the data in Prizm3.4 software.
(§7) Table 8 lists IC50 values for inhibition of growth of several cancer cell lines, including the glioblastoma cell lines A172 and U251, measured in a MTT cytotoxicity assay. Table 8. Data of cytotoxicity assay (MTT) for several cancer cell lines, IC50 [µM]

A2780 = assay: MTT proliferation / cytotoxicity assay; assay type: cell-based, human
Experimental: as §5, §6, §7

U251 = assay: MTT proliferation / cytotoxicity assay; assay type: cell-based, human; settings: glioblastoma cell line
Experimental: as §5, §6, §7

A375 = assay: MTT proliferation / cytotoxicity assay; assay type: cell-based, human
Experimental: as §5, §6, §7

cKIT, sequence (P10721 26-976): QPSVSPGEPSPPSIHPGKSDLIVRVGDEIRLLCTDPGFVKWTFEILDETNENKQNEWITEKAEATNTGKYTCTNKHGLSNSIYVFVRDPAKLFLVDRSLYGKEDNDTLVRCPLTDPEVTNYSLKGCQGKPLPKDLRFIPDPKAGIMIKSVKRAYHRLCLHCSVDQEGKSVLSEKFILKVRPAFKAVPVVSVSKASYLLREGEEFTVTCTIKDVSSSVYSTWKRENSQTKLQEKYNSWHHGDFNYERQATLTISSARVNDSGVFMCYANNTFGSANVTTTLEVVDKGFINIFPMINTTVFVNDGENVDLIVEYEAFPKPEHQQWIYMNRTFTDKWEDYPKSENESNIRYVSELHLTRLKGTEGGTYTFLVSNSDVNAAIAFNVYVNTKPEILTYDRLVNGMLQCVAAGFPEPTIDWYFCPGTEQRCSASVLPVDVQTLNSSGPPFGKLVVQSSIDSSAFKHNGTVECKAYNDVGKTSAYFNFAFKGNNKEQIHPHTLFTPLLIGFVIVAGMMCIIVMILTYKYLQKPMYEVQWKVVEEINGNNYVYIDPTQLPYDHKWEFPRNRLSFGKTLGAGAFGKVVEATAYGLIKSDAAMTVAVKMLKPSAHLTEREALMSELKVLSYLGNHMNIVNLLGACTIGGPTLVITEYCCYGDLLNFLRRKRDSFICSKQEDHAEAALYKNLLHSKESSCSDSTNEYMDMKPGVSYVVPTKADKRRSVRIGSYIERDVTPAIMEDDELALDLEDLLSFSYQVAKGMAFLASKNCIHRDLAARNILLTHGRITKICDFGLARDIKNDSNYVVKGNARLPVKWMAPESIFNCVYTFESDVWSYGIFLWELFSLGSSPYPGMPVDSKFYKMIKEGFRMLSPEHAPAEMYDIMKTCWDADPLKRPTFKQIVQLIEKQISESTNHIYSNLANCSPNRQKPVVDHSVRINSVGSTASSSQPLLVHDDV
PDGFR-α, sequence (P16234 24-1089, species assumed): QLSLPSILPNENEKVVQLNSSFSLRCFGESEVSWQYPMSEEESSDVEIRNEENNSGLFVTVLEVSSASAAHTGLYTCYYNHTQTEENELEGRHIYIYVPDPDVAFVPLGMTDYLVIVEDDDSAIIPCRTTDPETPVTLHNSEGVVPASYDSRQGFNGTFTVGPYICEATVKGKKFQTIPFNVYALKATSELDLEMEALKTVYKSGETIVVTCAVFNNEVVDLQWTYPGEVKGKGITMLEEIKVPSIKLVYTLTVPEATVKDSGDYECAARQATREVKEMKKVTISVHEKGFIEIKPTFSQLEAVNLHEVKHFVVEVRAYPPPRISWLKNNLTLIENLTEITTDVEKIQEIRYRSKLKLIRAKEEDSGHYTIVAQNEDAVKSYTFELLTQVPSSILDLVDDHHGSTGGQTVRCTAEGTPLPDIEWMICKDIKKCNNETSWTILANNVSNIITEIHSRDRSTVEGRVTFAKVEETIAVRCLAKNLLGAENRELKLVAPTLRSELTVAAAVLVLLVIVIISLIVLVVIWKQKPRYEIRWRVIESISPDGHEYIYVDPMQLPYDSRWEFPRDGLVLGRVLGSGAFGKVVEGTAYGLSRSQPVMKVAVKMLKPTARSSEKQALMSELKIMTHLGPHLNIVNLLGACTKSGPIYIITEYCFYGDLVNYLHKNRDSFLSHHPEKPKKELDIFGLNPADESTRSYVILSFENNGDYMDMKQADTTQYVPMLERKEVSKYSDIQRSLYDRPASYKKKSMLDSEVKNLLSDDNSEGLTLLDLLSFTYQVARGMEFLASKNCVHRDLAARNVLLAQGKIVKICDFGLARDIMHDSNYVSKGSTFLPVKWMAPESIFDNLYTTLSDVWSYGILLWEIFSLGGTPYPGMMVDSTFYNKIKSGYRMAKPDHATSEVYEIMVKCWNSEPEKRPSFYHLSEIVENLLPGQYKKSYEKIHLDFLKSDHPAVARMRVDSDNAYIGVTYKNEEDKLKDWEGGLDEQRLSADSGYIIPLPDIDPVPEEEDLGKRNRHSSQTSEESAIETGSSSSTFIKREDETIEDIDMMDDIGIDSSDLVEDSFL
VEGFR-2, sequence (P35968 20-1356, species assumed): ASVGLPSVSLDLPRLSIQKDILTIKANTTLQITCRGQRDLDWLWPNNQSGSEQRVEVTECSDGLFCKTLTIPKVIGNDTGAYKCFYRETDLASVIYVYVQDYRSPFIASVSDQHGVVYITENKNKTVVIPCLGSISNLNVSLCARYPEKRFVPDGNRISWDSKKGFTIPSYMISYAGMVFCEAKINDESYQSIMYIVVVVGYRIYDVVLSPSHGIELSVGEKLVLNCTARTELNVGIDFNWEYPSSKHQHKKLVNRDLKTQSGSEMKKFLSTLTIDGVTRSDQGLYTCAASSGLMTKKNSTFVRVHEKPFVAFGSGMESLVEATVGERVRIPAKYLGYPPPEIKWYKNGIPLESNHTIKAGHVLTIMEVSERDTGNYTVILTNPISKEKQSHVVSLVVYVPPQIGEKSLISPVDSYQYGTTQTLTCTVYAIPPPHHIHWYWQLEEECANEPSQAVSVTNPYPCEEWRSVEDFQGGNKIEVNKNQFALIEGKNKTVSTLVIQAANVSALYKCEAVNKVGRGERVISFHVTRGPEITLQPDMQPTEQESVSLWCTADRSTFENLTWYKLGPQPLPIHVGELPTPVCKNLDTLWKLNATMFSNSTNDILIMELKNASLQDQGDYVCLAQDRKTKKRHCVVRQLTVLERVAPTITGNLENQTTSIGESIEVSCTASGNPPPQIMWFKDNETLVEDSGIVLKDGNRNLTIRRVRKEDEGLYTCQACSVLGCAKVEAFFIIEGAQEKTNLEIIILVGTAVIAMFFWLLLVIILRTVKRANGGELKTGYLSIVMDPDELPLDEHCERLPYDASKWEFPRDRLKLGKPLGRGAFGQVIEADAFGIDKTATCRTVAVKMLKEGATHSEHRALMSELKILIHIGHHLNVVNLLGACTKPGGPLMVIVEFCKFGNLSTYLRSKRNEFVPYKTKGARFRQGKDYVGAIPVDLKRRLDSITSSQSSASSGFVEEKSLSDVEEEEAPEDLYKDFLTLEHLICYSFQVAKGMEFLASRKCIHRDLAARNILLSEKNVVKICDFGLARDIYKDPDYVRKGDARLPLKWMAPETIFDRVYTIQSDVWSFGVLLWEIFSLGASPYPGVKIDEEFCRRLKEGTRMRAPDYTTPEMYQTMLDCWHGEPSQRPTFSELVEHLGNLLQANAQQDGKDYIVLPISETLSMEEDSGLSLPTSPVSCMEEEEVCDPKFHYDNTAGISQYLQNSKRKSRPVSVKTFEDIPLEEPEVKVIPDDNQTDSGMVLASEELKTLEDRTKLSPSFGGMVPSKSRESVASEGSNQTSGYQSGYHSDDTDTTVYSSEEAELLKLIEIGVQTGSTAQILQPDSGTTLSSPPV

Molecule | IC50 (PDGFR-α) [nM] | IC50 (VEGFR-2) [nM] | IC50 (cKIT) [nM] | IC50 (A172; Homo sapiens, A 172, 72 h) [µM] | IC50 (A2780; Homo sapiens, A2780, 72 h) [µM] | IC50 (U251; 72 h) [µM] | IC50 (A172; 72 h) [µM] | IC50 (A375; 72 h) [µM] | IC50 (A2780; 72 h) [µM] | IC50 (U251; Homo sapiens, U-251, 72 h) [µM] | IC50 (A375; Homo sapiens, A-375, 72 h) [µM]
Fc1ccc(-c2cnc(Nc3cc(CC4CCC5CNCC54)ccn3)s2)cc1 (stereo not shown) [Example 018, [5-(4-Fluoro-phenyl)-thiazol-2-yl]-[4-(octahydro-cyclopenta[c]pyrrol-4-ylmethyl)-pyridin-2-yl]-amine] | < 10 | > 10 | < 10 | > 1 | > 1 |  |  |  |  |  | 
c1ccc(-c2cnc(Nc3cc(CC4CCNC4)ccn3)s2)cc1 (stereo not shown) [Example 014, (5-Phenyl-thiazol-2-yl)-(4-pyrrolidin-3-ylmethyl-pyridin-2-yl)-amine] | < 10 | > 10 | > 10 |  |  |  |  |  |  |  | 
[5-(4-Fluoro-phenyl)-thiazol-2-yl]-[6-(octahydro-isoindol-4-ylmethyl)-pyridin-2-yl]-amine [Example 021] | > 10 | > 100 | > 10 |  |  | > 1 | > 1 | > 1 | > 1 |  | 
c1ccc(-c2cnc(Nc3cc(C4CCCNC4)ccn3)s2)cc1 (stereo not shown) [Example 028, (1,2,3,4,5,6-Hexahydro-[3,4']bipyridinyl-2'-yl)-(5-phenyl-thiazol-2-yl)-amine] | < 10 | 32 | > 100 | > 1 | > 1 |  |  |  |  | > 10 | > 10
CN1CCC(Cc2ccnc(Nc3ncc(-c4ccc(F)cc4)s3)c2)CC1 [Example 004, [5-(4-Fluoro-phenyl)-thiazol-2-yl]-[4-(1-methyl-piperidin-4-ylmethyl)-pyridin-2-yl]-amine] |  |  |  | > 1 | > 1 |  |  |  |  | > 10 | > 1
Cc1cc(Nc2ncc(-c3ccccc3)s2)nc(C2CCN(CCO)CC2)n1 [Example 029, 2-{4-[4-Methyl-6-(5-phenyl-thiazol-2-ylamino)-pyrimidin-2-yl]-piperidin-1-yl}-ethanol] | > 10 | > 100 | < 10 | ≤ 1 | ≤ 1 |  |  |  |  | > 1 | 
c1ccc(-c2cnc(Nc3cccc(CC4CC5CCC(C4)N5)n3)s2)cc1 (stereo not shown) [Example 022, [6-(8-Aza-bicy-clo[3.2.1]oct-3-ylmethyl)-pyridin-2-yl]-(5-phenyl-thiazol-2-yl)-amine] | > 10 | > 100 | > 10 | > 1 | ≤ 1 |  |  |  |  | > 1 | ≤ 1
OCCN1CCC(c2cncc(Nc3ncc(-c4ccccc4)s3)n2)CC1 [Example 030, 2-{4-[6-(5-Phenyl-thiazol-2-ylamino)-pyrazin-2-yl]-piperidin-1-yl}-ethanol] | > 10 | > 100 | > 100 |  |  |  |  |  |  |  | 
CC(C)(C)Cc1cnc(Nc2cccc(C3CCN(C(=O)C(C)(C)N)CC3)n2)s1 [Example 047, 2-Amino-1-{6-[5-(2,2-dimethylpropyl)-thiazol-2-ylamino]-3',4',5',6'-tetrahydro-2'H-[2,4']bipyridinyl-1'-yl}-2-methyl-propan-1-one] | > 100 | > 100 | > 1000 |  | ≤ 1 |  |  |  |  |  | > 1
c1ccc(-c2cnc(Nc3cc(CC4CCCNCC4)ccn3)s2)cc1 (stereo not shown) [Example 026, (4-Azepan-4-ylmethyl-pyridin-2-yl)-(5-phenyl-thiazol-2-yl)-amine] |  |  |  | > 1 | ≤ 1 |  |  |  |  | > 10 | > 1
CC(C)(C)OC(=O)N1CCC(c2cccc(Nc3ncc(C#CC4CC4)s3)n2)CC1 [Example 045, 6-(5-Cyclopro-pylethynyl-thiazol-2-ylamino)-3',4',5',6'-tetrahydro-2'H-[2,4']bipyridinyl-1'-carboxylic acid tert-butyl ester] | > 10000 | > 10 | > 10000 |  |  |  |  |  |  |  | 
CN(C)CC1(c2cccc(Nc3ncc(-c4ccccc4)s3)n2)CCN(CCO)CC1 [Example 043, 2-[4'-Dimethylaminomethyl-6-(5-phenyl-thiazol-2-ylamino)-3',4',5',6'-tetrahydro-2'H-[2,4']bipyridinyl-1'-yl]-ethanol] | > 1000 | > 10000 | > 10000 |  |  |  |  |  |  |  | 
Fc1ccc(-c2cnc(Nc3cccc(CC4CCC5CNCC54)n3)s2)cc1 (stereo not shown) [Example 020, [5-(4-Fluoro-phenyl)-thiazol-2-yl]-[6-(octahydro-cyclopenta[c]pyrrol-4-ylmethyl)-pyridin-2-yl]-amine] | < 10 | > 100 | < 10 | ≤ 1 | < 1 |  |  |  |  |  | 
Fc1ccc(-c2cnc(Nc3cccc(CC4COC5(CCNCC5)C4)n3)s2)cc1 (stereo not shown) [Example 024, [5-(4-Fluoro-phenyl)-thiazol-2-yl]-[6-(1-oxa-8-aza-spiro[4.5]dec-3-ylmethyl)-pyridin-2-yl]-amine] | < 10 | > 10 | > 10 | ≤ 1 | ≤ 1 |  |  |  |  |  | 
CCCc1cnc(Nc2cccc(C3CCN(C(=O)C(C)(C)N)CC3)n2)s1 [Example 041, 2-Amino-2-methyl-1-[6-(5-propyl-thiazol-2-ylamino)-3',4',5',6'-tetrahydro-2'H-[2,4']bipyridinyl-1'-yl]-propan-1-one] |  |  | > 100 |  | ≤ 1 |  |  |  |  |  | > 1
Cc1nc(Nc2ncc(-c3ccccc3)s2)cc(C2CCN(C(=O)C(C)(C)N)CC2)n1 [Example 031, 2-Amino-2-methyl-1-{4-[2-methyl-6-(5-phenyl-thiazol-2-ylamino)-pyrimidin-4-yl]-piperidin-1-yl}-propan-1-one] | < 10 | > 10 | > 10 | > 1 | > 1 |  |  |  |  | > 10 | 
c1ccc(-c2cnc(Nc3cc(C4CCCN4)ccn3)s2)cc1 (stereo not shown) [Example 027, (5-Phenyl-thiazol-2-yl)-(4-pyrrolidin-2-yl-pyridin-2-yl)-amine] | < 10 | > 10 | > 10 |  |  |  |  |  |  |  | 
OCCN1CCC(c2ccnc(Nc3ncc(/C=C/c4ccccc4)s3)c2)CC1 [Example 048, 2-{2'-[5-((E)-Styryl)-thiazol-2-ylamino]-3,4,5,6-tetrahydro-2H-[4,4']bipyridinyl-1-yl}-ethanol] | > 10 | > 100 | > 1000 |  |  |  |  |  |  |  | 
OCCN1CCC(c2cccc(Nc3ncc(-c4ccnc(Cl)c4)s3)n2)CC1 [Example 046, 2-{6-[5-(2-Chloro-pyridin-4-yl)-thiazol-2-ylamino]-3',4',5',6'-tetrahydro-2'H-[2,4']bipyridinyl-1'-yl}-ethanol] | < 10 | > 100 | > 10 |  |  |  |  |  |  |  | 
CNC1CCC(Cc2ccnc(Nc3ncc(-c4ccc(F)cc4)s3)c2)CC1 (stereo not shown) [Example 016, [5-(4-Fluoro-phenyl)-thiazol-2-yl]-[4-(4-methylamino-cyclohexylmethyl)-pyridin-2-yl]-amine] | < 10 | > 10 | < 10 | > 1 | > 1 |  |  |  |  |  | 
OCCN1CCC(CO)(c2cccc(Nc3ncc(-c4ccccc4)s3)n2)CC1 [Example 042, 2-[4'-Hydroxymethyl-6-(5-phenyl-thiazol-2-ylamino)-3',4',5',6'-tetrahydro-2'H-[2,4']bipyridinyl-1'-yl]-ethanol] | > 100 | > 10000 | > 100 |  |  |  |  |  |  |  | 
CN1CCOCC(Cc2ccnc(Nc3ncc(-c4ccc(F)cc4)s3)c2)C1 (stereo not shown) [Example 010, [5-(4-Fluoro-phenyl)-thiazol-2-yl]-[4-(4-methyl-[1,4]oxazepan-6-ylmethyl)-pyridin-2-yl]-amine] |  |  |  | > 1 | > 1 |  |  |  |  | > 10 | > 1
